Assay results from patent publication US5589496A, “Fused benzeneoxyacetic acid derivatives which have PGI2 receptor agonist activity” (Ono Pharmaceutical Co., Ltd., priority 1991, dated 1996).

What was measured:
[1] = molecular target: T1, PGI2 receptor (Homo sapiens, UniProt P43119); assay: Inhibitory activity on binding of ^3 H-iloprost to PGI2 receptor on human blood platelet membrane fraction; details: 10 nM [^3H]-iloprost, human blood platelet membrane fraction (0.3 mg protein), 24° C., 30 min, pH 7.4
T1 construct: human blood platelet membrane fraction (0.3 mg protein) was added; from tissue; host or cells: human blood platelets (membrane fraction)
T1 sequence (P43119 whole entry): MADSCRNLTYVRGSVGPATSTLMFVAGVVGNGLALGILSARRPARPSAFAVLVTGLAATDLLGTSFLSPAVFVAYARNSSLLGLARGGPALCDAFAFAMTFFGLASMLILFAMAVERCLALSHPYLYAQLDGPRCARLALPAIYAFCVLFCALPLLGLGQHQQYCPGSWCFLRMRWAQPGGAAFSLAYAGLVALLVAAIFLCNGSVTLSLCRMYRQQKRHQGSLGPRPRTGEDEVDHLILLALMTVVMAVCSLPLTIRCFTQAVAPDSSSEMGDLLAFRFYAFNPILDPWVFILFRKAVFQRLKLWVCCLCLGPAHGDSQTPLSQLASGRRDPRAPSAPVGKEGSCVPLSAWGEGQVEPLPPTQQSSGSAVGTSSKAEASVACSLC
Experimental: i) Inhibitory activity on binding of ^3 H-iloprost to PGI2 receptor on human blood platelet membrane fraction Method 50 mM Tris-HCl buffer (pH 7.4) containing 15 mM MgCl2, 5 mM EDTA and 10 nM [^3 H]-iloprost were used as reaction medium. To 0.2 ml of the reaction medium, human blood platelet membrane fraction (0.3 mg protein) was added with or without a test compound. The mixture was incubated at 24° C. for 30 min. After incubation, 4 ml of ice-cold 10 mM Tris-HCl buffer (pH 7.4) was added to the reaction mixture, and filtered through Whatman GF/B glass fiber filter, and washed 4 times with 4 ml of ice-cold 10 mM Tris-HCl buffer (pH 7.4) to separate bound and free [^3 H]-iloprost. After washing, the filter was dried and radioactivity was counted. Non-specific binding was obtained by performing parallel binding experiments in the presence of 10 μM non-labelled iloprost. Specific binding was calculated by subtracting the non-specific binding from the total binding. The inhibitory effect of test compound was calculated from the following equation. The percentage of inhibition (%)=100-(B1 /B0 ×100) B1 : specific [^3 H]-iloprost binding in presence of test compound B0 : specific [^3 H]-iloprost binding in absence of test compound

[2] = test system: human blood platelet aggregation; assay: Inhibitory effect on human blood platelet aggregation (ADP-induced, platelet-rich plasma); assay type: cell-based; details: human PRP (5×10^5 platelets/mm^3), test compound 1 min prior to ADP (4 μm)
Experimental: ii) Inhibitory effect on human blood platelet aggregation
Platelet-rich plasma (PRP) was prepared from human blood (5×10^5 platelets/mm^3), and a test compound was added to PRP 1 min prior to the addition of ADP (4 μm). The aggregation was monitored using a platelet aggregometer (NBS HEMA TRACER 601, Niko Bioscience, Japan).

Row | SMILES | IC50 [1] | IC50 [2]
1 | CCc1oc(C(c2ccccc2)c2ccccc2)nc1CC1CCc2c(cccc2OCC(=O)O)C1 (centres unmarked) [Example 14, [2-(2-Diphenylmethyl-5-ethyloxazol-4-yl)methyl-1,2,3,4-tetrahydronaphthalen-5-yloxy] acetic acid] | 0.94 µM | 1.6 µM
2 | O=C(O)COc1cccc2c1CCC(CSc1nc(-c3ccccc3)c(-c3ccccc3)[nH]1)C2 (centres unmarked) [2(c), [2-(4,5-Diphenylimidazol-2-ylthio)methyl-1,2,3,4-tetrahydronaphthalen-5-yloxy] acetic acid] | 3.9 µM | 12 µM
3 | O=C(O)COc1cccc2c1CCC(Cn1c(-c3ccccc3)c(-c3ccccc3)n(-c3ccccc3)c1=O)C2 (centres unmarked) [2(e), [2-(3,4,5-Triphenyl-2-oxo-2,3-dihydroimidazol-1-yl)methyl-1,2,3,4-tetrahydronaphthalen-5-yloxy] acetic acid] | 2.6 µM | 15 µM
4 | O=C(O)COc1cccc2c1CCC(Cc1coc(C(c3ccccc3)c3ccccc3)n1)C2 (centres unmarked) [Example 12, [2-(2-Diphenylmethyloxazol-4-yl)methyl-1,2,3,4-tetrahydronaphthalen-5-yloxy] acetic acid] | 0.32 µM | 1 µM
5 | O=C(O)COc1cccc2c1CCC(CCSc1nc(-c3ccccc3)c(-c3ccccc3)[nH]1)C2 (centres unmarked) [4(b), [2-(2-(4,5-Diphenylimidazol-2-ylthio)ethyl)-1,2,3,4-tetrahydronaphthalen-5-yloxy] acetic acid] | 5 µM | 11 µM
6 | O=C(O)COc1cccc2c1CCC(Cn1cnc(-c3ccccc3)c1-c1ccccc1)C2 (centres unmarked) [2(a), [2-(4,5-Diphenylimidazol-1-yl)methyl-1,2,3,4-tetrahydronaphthalen-5-yloxy]acetic acid] | 2.3 µM | 13 µM
7 | O=C(O)COc1cccc2c1CCC(CCOc1nc(-c3ccccc3)c(-c3ccccc3)n1-c1ccccc1)C2 (centres unmarked) [4(c), [2-(2-(1,4,5-Triphenylimidazol-2-yloxy)ethyl)-1,2,3,4-tetrahydronaphthalen-5-yloxy] acetic acid] | 8.2 µM | 
8 | O=C(O)COc1cccc2c1CCCC2CCn1c(-c2ccccc2)c(-c2ccccc2)n(-c2ccccc2)c1=O (centres unmarked) [6(b), [1-(2-(1,4,5-Triphenyl-2-oxo-2,3-dihydroimidazol-3-yl)ethyl)-1,2,3,4-tetrahydronaphthalen-5-yloxy] acetic acid] | 4 µM | 16 µM
9 | O=C(O)COc1cccc2c1CCC(Cn1cc(C(c3ccccc3)n3ccnc3)cn1)C2 (centres unmarked) [Example 24, [2-(4-((1-Imidazolyl)phenylmethyl)pyrazol-1-yl)methyl-1,2,3,4-tetrahydronaphthalen-5-yloxy] acetic acid] | 8 µM | 
10 | O=C(O)COc1cccc2c1CCC(Cc1nc(C(c3ccccc3)c3ccccc3)no1)C2 (centres unmarked) [8(a), [2-(3-Diphenylmethyl-1,2,4-oxadiazol-5-yl)methyl-1,2,3,4-tetrahydronaphthalen-5-yloxy] acetic acid] | 0.26 µM | 1 µM
11 | O=C(O)COc1cccc2c1CCC(COc1nc(-c3ccccc3)c(-c3ccccc3)n1-c1ccccc1)C2 (centres unmarked) [2(d), [2-(1,4,5-Triphenylimidazol-2-yloxy)methyl-1,2,3,4-tetrahydronaphthalen-5-yloxy] acetic acid] | 6.8 µM | 20 µM

Now from value to compound:

Row | IC50 [1] | IC50 [2] | SMILES
12 | 2 µM |  | O=C(O)COc1cccc2c1CCCC2CCc1nc(C(c2ccccc2)c2ccccc2)no1 (centres unmarked) [Example 8, [1-[2-(3-Diphenylmethyl-1,2,4-oxadiazol-5-yl)ethyl]-1,2,3,4-tetrahydronaphthalen-5-yloxy] acetic acid]
13 | 0.16 µM |  | O=C(O)COc1cccc2c1CCC(Cn1cc(C(c3ccccc3)c3cccnc3)cn1)=C2 (centres unmarked) [22(a), [2-(4-((3-Pyridyl)phenylmethyl)pyrazol-1-yl)methyl-3,4-dihydronaphthalen-5-yloxy] acetic acid]
14 | 1.8 µM | 5.1 µM | O=C(O)COc1cccc2c1CCC(Cc1nc(C(c3ccccc3)c3ccccc3)co1)C2 (centres unmarked) [Example 10, [2-(4-Diphenylmethyloxazol-2-yl)methyl-1,2,3,4-tetrahydronaphthalen-5-yloxy] acetic acid]
15 | 0.21 µM | 0.15 µM | O=C(O)COc1cccc2c1CCC(Cn1cc(C(c3ccccc3)c3cccnc3)cn1)C2 (centres unmarked) [2(i), [2-(4-((3-pyridyl)phenylmethyl)pyrazol-1-yl)methyl-1,2,3,4-tetrahydronaphthalen-5-yloxy] acetic acid]
16 | 6.8 µM | 12 µM | O=C(O)COc1cccc2c1CCC(Cc1c[nH]c(C(c3ccccc3)c3ccccc3)n1)C2 (centres unmarked) [Example 16, [2-(2-Diphenylmethylimidazol-4-yl)methyl-1,2,3,4-tetrahydronaphthalen-5-yloxy] acetic acid]
17 | 0.058 µM |  | O=C(O)COc1cccc2c1CCCC2CCn1cc(C(c2ccccc2)c2ccccc2)cn1 (centres unmarked) [6(c), [1-(2-(4-Diphenylmethylpyrazol-1-yl)ethyl)-1,2,3,4-tetrahydronaphthalen-5-yloxy] acetic acid]
18 | 1.4 µM |  | O=C(O)COc1cccc2c1CCC(CCn1cc(C(c3ccccc3)c3ccccc3)cn1)C2 (centres unmarked) [4(f), [2-(2-(4-Diphenylmethylpyrazol-1-yl)ethyl)-1,2,3,4-tetrahydronaphthalen-5-yloxy] acetic acid]
19 | 5 µM |  | O=C(O)COc1cccc2c1CCCC2CCn1cnc(-c2ccccc2)c1-c1ccccc1 (centres unmarked) [Example 6, [1-[2-(4,5-Diphenylimidazol-1-yl)ethyl]-1,2,3,4-tetrahydronaphthalen-5-yloxy] acetic acid]
20 | 0.043 µM | 0.045 µM | O=C(O)COc1cccc2c1CCC(Cn1cc(C(c3ccccc3)c3ccccc3)cn1)C2 (centres unmarked) [Example 2, [2-(4-Diphenylmethylpyrazol-1-yl)methyl-1,2,3,4-tetrahydronaphthalen-5-yloxy]acetic acid]
21 | 0.35 µM | 0.3 µM | O=C(O)COc1cccc2c1CCC(Cn1cnc(C(c3ccccc3)c3ccccc3)c1)C2 (centres unmarked) [2(g), [2-(4-Diphenylmethylimidazol-1-yl)methyl-1,2,3,4-tetrahydronaphthalen-5-yloxy] acetic acid]
22 | 0.018 µM | 0.093 µM | O=C(O)COc1cccc2c1CCC(Cn1cc(C(c3ccccc3)c3ccccc3)cn1)=C2 [Example 22, [2-(4-(Diphenylmethyl)pyrazol-1-yl)methyl-3,4-dihydronaphthalen-5-yloxy] acetic acid]
23 | 0.36 µM |  | O=C(O)COc1cccc2c1CCC(Cn1ccc(C(c3ccccc3)c3ccccc3)n1)C2 (centres unmarked) [2(h), [2-(3-Diphenylmethylpyrazol-1-yl)methyl-1,2,3,4-tetrahydronaphthalen-5-yloxy] acetic acid]
